What all share (assay): NCI60 five-dose screen
Common to all, as to assay type: cell-based

One test has as its system MDA-MB231ATCC. The following applies: Homo sapiens, MDA-MB-231, Breast Cancer. As to the method: (§1) Since all new conjugates (3a–h) had notable antiproliferative activities on several tumor cell lines in the course of the one-dose screening, they were subjected to a five-dose test. […] J. Mol. Sci. 2025, 26, 11063 10 of 10 S.3. NCI60 Screening A detailed description of the NCI screening procedures can also be found on the website of NCI [39], and in our previous work. S.3.1. One-Dose Screen All candidates were examined at first at a single high dose (10 μM) in the full NCI60 cell panel. The value reported for the one-dose test is growth relative to the no-drug control and relative to the time zero number of cells. This made possible the disclosure of both growth inhibition (numbers between 0 and 100) and lethality (numbers less than 0). For example, a value of 100 means no growth inhibition. A value of 20 would mean 80% growth inhibition. A value of 0 means no net growth over the course of the analysis. A value of −20 would mean 20% lethality. A value of −100 means all cells are dead. S.3.2. […] The human tumor cell lines of the cancer screening panel were grown in RPMI 1640 medium containing 5% fetal bovine serum and 2 mM l-glutamine. Characteristically, cells were injected in 96-well microtiter plates in 0.1 mL at plating densities ranging from 5000 to 40,000 cells/well, depending on the doubling time of individual cell lines. After cell inoculation, the microtiter plates were incubated at 37 °C, 5% carbon dioxide, 95% air, and 100% relative humidity for 24 hours before the addition of tested compounds. After 24 hours, 2 plates of each cell line were fixed in situ with Cl3COOH (TCA), to represent a measurement of the cell population for each cell line at the time of drug addition (tz). Tested compounds were solubilized in DMSO at 400-fold the desired final maximum test concentration and stored frozen before application. In the course of the drug addition, an aliquot of frozen concentrate was thawed and diluted to twice the desired final maximum test concentration with a complete medium containing 50 μg mL−1 gentamicin. Additional four, 10-fold or ½ log serial dilutions were produced to furnish a total of five drug concentrations plus control. Aliquots of 0.1 mL of these different drug dilutions were added to the appropriate microtiter wells already containing 0.1 mL of medium, resulting in the required final drug concentrations. Following drug addition, the plates were incubated at 37 °C, 5% carbon dioxide, 95% air, and 100% relative humidity for an additional 48 hours. For adherent cells, the test was finished by the addition of cold Cl3COOH. Cells were fixed in situ by the addition of 50 μL of cold 50% (w/v) Cl3COOH, and incubated at 4 °C for 1 hour. The supernatant was discarded, and the plates were washed with H2O (5×) and dried in air. Sulforhodamine B (SRB) solution (0.1 mL) at 0.4% (w/v) in 1% CH3COOH was added to each well, and plates were incubated at RT for 10 min. After staining, the unbound dye was removed by washing five times with 1% CH3COOH, and the plates were dried in the air. The bound stain is afterward solubilized with a 10 mM trizma base, and the absorbance is read on an automated plate reader at λ = 515 nm. Utilizing the seven absorbance measurements [time zero (tz), control growth (c), and test growth in the presence of the drug at the five concentration levels (ti)], the percentage growth was determined at each of the drug concentration levels. Growth inhibition (%) was calculated as: [(ti − tz)/(c − tz)] × 100, for concentrations where ti ≥ tz (1) [(ti − tz)/(tz)] × 100, for concentrations where ti < tz. (2) Three dose‒response parameters were calculated as follows. GI50 (growth inhibition of 50%) was determined from Equation (3), which is the drug concentration resulting in a 50% reduction in the net protein increase (as measured by SRB staining) in control cells in the course of the drug incubation. [(ti − tz)/(c − tz)] × 100 = 50 (3)

In another test the test system is SNB-75. The following applies: Homo sapiens; SNB-75, CNS Cancer. How it is done: as §1
For another test, the system named is OVCAR-3. The following applies: Homo sapiens; OVCAR-3, Ovarian Cancer. How it is done: as §1
The test system of a further test is M14. As to conditions: Homo sapiens; M14, Melanoma. As to the method:
as §1

Another test relates to UACC-62. The following applies: Homo sapiens; UACC-62, Melanoma. As to the method: as §1
For another test, the system named is LOX IMVI. The following applies: Homo sapiens, Melanoma. How it is done:
as §1

A further test has as its system SF-539. As to conditions: Homo sapiens; SF-539, CNS Cancer. How it is done: as §1
In another test the test system is MOLT-4. As to conditions: Homo sapiens; MOLT-4, Leukemia. How it is done: as §1
For the next test, the system named is SW-620. As to conditions: Homo sapiens; SW-620, Colon Cancer. How it is done:
as §1

For a further test, the system named is NCI-H226. As to conditions: Homo sapiens; NCI-H226, Non-small-Cell Lung Cancer. How it is done: as §1
Another test has as its system CAKI-1. The following applies: Homo sapiens; CAKI-1, Renal Cancer. As to the method: as §1
Another test relates to HS 578T. As to conditions: Homo sapiens, Breast Cancer. As to the method: as §1
Another test has as its system TK-10. As to conditions: Homo sapiens; TK-10, Renal Cancer. How it is done:
as §1

A further test deals with RPMI-8226. As to conditions: Homo sapiens; RPMI-8226, Leukemia. As to the method: as §1
The subject of the next test is OVCAR-8. The following applies: Homo sapiens; OVCAR-8, Ovarian Cancer. As to the method: as §1
For a further test, the system named is U251. The following applies: Homo sapiens, U-251; U251, CNS Cancer. As to the method:
as §1

In a further test the test system is OVCAR-5. The following applies: Homo sapiens; OVCAR-5, Ovarian Cancer. How it is done: as §1
In another test the test system is SF-268. The following applies: Homo sapiens; SF-268, CNS Cancer. As to the method: as §1
Another test has as its system HL-60(TB). As to conditions: Homo sapiens, Leukemia. As to the method: as §1
A further test relates to MALME-3M. As to conditions: Homo sapiens, Melanoma. How it is done: as §1
The test system of a further test is MDA-MB-468. The following applies: Homo sapiens; MDA-MB-468, Breast Cancer. As to the method:
as §1

Another test has as its system HCT-15. As to conditions: Homo sapiens; HCT-15, Colon Cancer. How it is done: as §1

As to `O=c1cc(-c2ccccc2)oc2cc(OCCCC[P+](c3ccccc3)(c3ccccc3)c3ccccc3)cc(O)c12` [3a], the GI50 (usually the concentration at which growth is held to half of that of the control) in the test on MDA-MB231ATCC is 240 nM; in the test on SNB-75, 165 nM; in the test on OVCAR-3, 368 nM; in the test on M14, 378 nM; with UACC-62 it was 292 nM; in the test with LOX IMVI, 326 nM. Further, the GI50 was determined as 380 nM in the test on SF-539; 338 nM with MOLT-4; 343 nM with SW-620; 354 nM with NCI-H226; 385 nM with CAKI-1; 306 nM in the test with HS 578T. For the same molecule, the GI50 with TK-10 was determined as 464 nM; in the test with RPMI-8226, 205 nM; in the test on OVCAR-8, 350 nM; in the test on U251 it was 315 nM; in the test on OVCAR-5, 1150 nM; with SF-268, 380 nM. Moreover, the GI50 was 167 nM in the test with HL-60(TB), 270 nM in the test on MALME-3M, 128 nM in the test on MDA-MB-468 and 628 nM with HCT-15.
Regarding `Cc1ccc([P+](CCCCOc2cc(O)c3c(=O)cc(-c4ccccc4)oc3c2)(c2ccc(C)cc2)c2ccc(C)cc2)cc1` [3b], the GI50 in the test on MDA-MB231ATCC worked out at 320 nM; in the test on SNB-75 it was 219 nM; with OVCAR-3, 196 nM; in the test on M14, 331 nM; in the test on UACC-62, 344 nM; with LOX IMVI, 287 nM. For the same molecule, the GI50 in the test on SF-539 is 498 nM; in the test on MOLT-4, 322 nM; in the test with SW-620, 354 nM; with NCI-H226 it was 277 nM; with CAKI-1, 228 nM; in the test on HS 578T, 366 nM. For the same molecule, the GI50 was 313 nM in the test with TK-10; 144 nM with RPMI-8226; 337 nM with OVCAR-8; 279 nM with U251; 684 nM with OVCAR-5; 285 nM with SF-268. Moreover, the GI50 stood at 140 nM in the test on HL-60(TB), 381 nM with MALME-3M, 123 nM in the test with MDA-MB-468 and 311 nM with HCT-15.
Consider `COc1ccc([P+](CCCCOc2cc(O)c3c(=O)cc(-c4ccccc4)oc3c2)(c2ccc(OC)cc2)c2ccc(OC)cc2)cc1` [3c], for which the GI50 was 315 nM in the test on MDA-MB231ATCC; 344 nM in the test on SNB-75; 288 nM in the test on OVCAR-3; 478 nM with M14; 317 nM in the test on UACC-62; 355 nM in the test with LOX IMVI. In addition, the GI50 worked out at 410 nM in the test on SF-539; 453 nM in the test with MOLT-4; 351 nM in the test on SW-620; 606 nM in the test with NCI-H226; 1030 nM with CAKI-1; 332 nM in the test with HS 578T. In addition, the GI50 with TK-10 turned out to be 1090 nM; with RPMI-8226, 235 nM; in the test with OVCAR-8, 408 nM; with U251, 276 nM; with OVCAR-5, 852 nM; with SF-268 it was 351 nM. Besides, the GI50 in the test on HL-60(TB) turned out to be 288 nM; in the test on MALME-3M, 287 nM; in the test with MDA-MB-468, 248 nM; in the test with HCT-15 it was 1550 nM.
Consider `O=c1cc(-c2ccccc2)oc2cc(OCCCC[P+](c3ccc(F)cc3)(c3ccc(F)cc3)c3ccc(F)cc3)cc(O)c12` [3d], for which the GI50 in the test on MDA-MB231ATCC was found to be 1910 nM; with SNB-75 it was 1670 nM; with OVCAR-3 it was 1420 nM; in the test on M14, 1750 nM; in the test on UACC-62, 2050 nM; with LOX IMVI, 1690 nM. Besides, the GI50 is 1930 nM in the test with SF-539; 1900 nM with MOLT-4; 1460 nM in the test on SW-620; 1820 nM in the test with NCI-H226; 1780 nM in the test on CAKI-1; 1980 nM in the test with HS 578T. In addition, the GI50 worked out at 1740 nM with TK-10; 1310 nM with RPMI-8226; 1840 nM in the test with OVCAR-8; 1670 nM with U251; 3000 nM with OVCAR-5; 1570 nM in the test with SF-268. In addition, the concentration for 50% growth inhibition (GI50) came out at 1340 nM in the test with HL-60(TB), 2040 nM in the test on MALME-3M, 1100 nM in the test with MDA-MB-468 and 1850 nM in the test on HCT-15.
As for `O=c1cc(-c2ccccc2)oc2cc(OCCCC[P+](C3CCCCC3)(C3CCCCC3)C3CCCCC3)cc(O)c12` [3e], the GI50 in the test with MDA-MB231ATCC came out at 366 nM; with SNB-75, 529 nM; with OVCAR-3 it was 381 nM; in the test on M14, 515 nM; in the test with UACC-62 it was 368 nM; with LOX IMVI, 938 nM. Besides, the GI50 with SF-539 amounted to 751 nM; with MOLT-4, 1010 nM; with SW-620, 649 nM; in the test with NCI-H226, 1100 nM; with CAKI-1, 1570 nM; in the test with HS 578T, 838 nM. Further, the GI50 was determined as 1430 nM in the test on TK-10; 182 nM in the test on RPMI-8226; 595 nM in the test with OVCAR-8; 287 nM in the test on U251; 1300 nM in the test on OVCAR-5; 1040 nM in the test on SF-268. In addition, the GI50 turned out to be 184 nM in the test on HL-60(TB), 397 nM in the test with MALME-3M, 273 nM in the test on MDA-MB-468 and 1550 nM in the test on HCT-15.
With `COc1c(C)cc([P+](CCCCOc2cc(O)c3c(=O)cc(-c4ccccc4)oc3c2)(c2cc(C)c(OC)c(C)c2)c2cc(C)c(OC)c(C)c2)cc1C` [3f], the GI50 in the test on MDA-MB231ATCC turned out to be 258 nM; in the test on SNB-75, 213 nM; with OVCAR-3, 334 nM; in the test on M14 it was 329 nM; with UACC-62 it was 312 nM; in the test with LOX IMVI, 284 nM. Besides, the GI50 in the test on SF-539 was found to be 367 nM; in the test with MOLT-4, 238 nM; in the test with SW-620, 323 nM; with NCI-H226, 249 nM; with CAKI-1, 275 nM; in the test with HS 578T, 361 nM. Besides, the GI50 in the test with TK-10 worked out at 427 nM; in the test on RPMI-8226 it was 110 nM; in the test on OVCAR-8, 350 nM; with U251 it was 67 nM; in the test on OVCAR-5 it was 335 nM; in the test on SF-268, 525 nM. Moreover, the GI50 was 78 nM in the test on HL-60(TB), 310 nM in the test with MALME-3M, 64 nM in the test with MDA-MB-468 and 345 nM in the test with HCT-15.

For the origin of these results see PMC12652692, “Synthesis and In Vitro Anticancer Evaluation of Novel Phosphonium Derivatives of Chrysin” (International Journal of Molecular Sciences, 2025).
